Each structure is given as a SMILES string.

As usually defined, the IC50 is the concentration that inhibits the measured activity by half.

Chain of fully phosphorylated, active Mouse ERK2 protein (P63085 whole entry): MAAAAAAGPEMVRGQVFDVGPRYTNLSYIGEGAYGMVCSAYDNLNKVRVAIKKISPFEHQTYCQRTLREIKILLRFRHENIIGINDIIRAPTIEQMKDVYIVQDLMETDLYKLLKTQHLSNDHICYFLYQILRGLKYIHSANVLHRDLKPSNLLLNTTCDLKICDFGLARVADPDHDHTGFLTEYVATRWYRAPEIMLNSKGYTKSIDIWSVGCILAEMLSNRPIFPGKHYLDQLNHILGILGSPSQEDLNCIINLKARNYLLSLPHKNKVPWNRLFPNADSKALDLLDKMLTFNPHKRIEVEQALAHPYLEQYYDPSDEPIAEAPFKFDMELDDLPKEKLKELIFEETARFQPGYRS

This experiment deals with fully phosphorylated, active Mouse ERK2 protein (Mus musculus, UniProt P63085). The experiment in a line: Active ERK2 assay (AERK2), IMAP format. The format is biochemical. The following applies: activated ERK2, IMAP fluorescence polarization, 30 μM ATP. As for the experimental part:
14 μl of kinase buffer (10 mM Tris.HCl pH 7.2, 10 mM MgCl2, 0.01% Tween-20, 1 mM DTT) containing 0.4 ng unphosphorylated Mouse ERK2 protein can be added to each well of a black 384-well assay plate. […] DMSO concentration during initial incubation is 6.7%. ERK2 activity can be determined to be insensitive to DMSO concentrations up to 20%. ERK2 can then be activated and it's kinase activity can be measured by the addition of 10 μl kinase buffer with the following components (final concentration per reaction): 2 ng active (phosphorylated) human MEK1 protein and 4 μM (total) ERK2 IMAP substrate peptides (3.9 μM unlabeled IPTTPITTTYFFFK-CONH2 and 100 nM IPTTPITTTYFFFK(5-carboxyfluorescein)-CONH2) and 30 μM ATP. DMSO concentration during ERK activation can be 4%. After one hour, reactions can be terminated by addition of 60 μl IMAP detections beads in binding buffer (Molecular Devices). Binding can be allowed to equilibrate for 30 minutes before reading the plate on an LJL Analyst Fluorescence Polarization plate reader. […] Active compounds can be reconfirmed in an independent assay.
Activated ERK2 activity was also determined in the IMAP assay format using the procedure outlined above. 1 μl of 25× compound was added to 14 μl of kinase buffer containing 0.25 ng fully phosphorylated, active Mouse ERK2 protein. Following a 30 minute incubation, the reactions were initiated by addition of 10 μl of kinase buffer containing 1 μM ERK2 IMAP substrate peptide (0.9 μM unlabeled IPTTPITTTYFFFK-CONH2 and 100 nM IPTTPITTTYFFFK(5-carboxyfluorescein)-CONH2) and 30 μM ATP. Reactions proceeded for 30 minutes before termination by addition of 60 μl IMAP detection beads in binding buffer. Plates were read as above after 30 minute binding equilibration. Active compounds were reconfirmed in an independent assay.
As to `CCn1cc(-c2n[nH]c3ccc(-c4nnc([C@@H]5CCCN(Cc6cc7ccccc7n6C)C5)o4)cc23)cn1` [Example 342, 3-(1-ETHYL-1H-PYRAZOL-4- YL)-5-[5-[1-[(1-METHYL-1H- INDOL-2-YL)METHYL]-3(R)- PIPERIDINYL]-1,3,4- OXADIAZOL-2-YL]-1H- INDAZOLE], the IC50 is over 1000 nM.
Compound `c1csc(CN2CCC[C@@H](c3nc(-c4ccc5[nH]nc(-c6ccc7c(c6)CCO7)c5c4)n[nH]3)C2)c1` [Example 298, 3-(2,3-DIHYDRO-5- BENZOFURANYL)-5-[5-[1-(2- THIENYLMETHYL)-3(R)- PIPERIDINYL]-1H-1,2,4- TRIAZOL-3-YL]-1H- INDAZOLE] displayed an IC50 of at least 504 nM.
As to `Fc1cccc(F)c1CN1CCC[C@@H](c2nnc(-c3ccc4[nH]nc(-c5ccc6occc6c5)c4c3)o2)C1` [Example 348, 3-(5-BENZOFURANYL)-5-[5- [1-[(2,6- DIFLUOROPHENYL)METHYL]- 3(R)-PIPERIDINYL]-1,3,4- OXADIAZOL-2-YL]-1H- INDAZOLE], the half-maximal inhibitory concentration (IC50) was over 1000 nM.
As for `COc1cccc(F)c1CN1CCC[C@@H](c2nnc(-c3ccc4[nH]nc(-c5ccnc(C)c5)c4c3)o2)C1` [Example 336, 5-[5-[1-[(2-FLUORO-6- METHOXYPHENYL)METHYL]- 3(R)-PIPERIDINYL]-1,3,4- OXADIAZOL-2-YL]-3-(2- METHYL-4-PYRIDINYL)-1H- INDAZOLE], the IC50 lay in the range of 0.3 to 10.4 nM.
`Cn1c(CN2CCC[C@@H](c3nnc(-c4ccc5[nH]nc(-c6ccc7nccn7c6)c5c4)o3)C2)cc2ccccc21` [Example 329, 3-IMIDAZO[1,2-a]PYRIDIN-6- YL-5-[5-[1-[(1-METHYL-1H- INDOL-2-YL)METHYL]-3(R)- PIPERIDINYL]-1,3,4- OXADIAZOL-2-YL]-1H- INDAZOLE] registered an IC50 of over 1000 nM.
Next, `Fc1ccccc1CN1CCCC(c2nnc(-c3ccc4[nH]nc(-c5ccncc5)c4c3)o2)C1` (stereo not drawn) [Example 306, 5-[5-[1-[(2- FLUOROPHENYL)METHYL]- 3-PIPERIDINYL]-1,3,4- OXADIAZOL-2-YL]-3-(4- PYRIDINYL)-1H-INDAZOLE]: 0.3 to 10.4 nM; `Fc1ccccc1CN1CCOC(c2cn(-c3ccc4[nH]nc(-c5ccncc5)c4c3)nn2)C1` (stereo not drawn) [Example 249, 5-[4-[4-[(2- FLUOROPHENYL)METHYL]- 2-MORPHOLINYL]-1H-1,2,3- TRIAZOL-1-YL]-3-(4- PYRIDINYL)-1H-INDAZOLE]: 0.3 to 10.4 nM.
In turn, `CC(C)Sc1ccc(-c2n[nH]c3ccc(-c4n[nH]c([C@@H]5CCCN(Cc6c(F)cccc6F)C5)n4)cc23)cc1` [Example 305, 5-[5-[1-[(2,6- DIFLUOROPHENYL)METHYL]- 3(R)-PIPERIDINYL]-1H- 1,2,4-TRIAZOL-3-YL]-3-[4-[(1- METHYLETHYL)THIO]PHEN- YL]-1H-INDAZOLE] displayed an IC50 of at least 504 nM.
`Fc1cccc(F)c1CN1CCC[C@@H](c2nc(-c3ccc4[nH]nc(-c5ccnc(F)c5F)c4c3)n[nH]2)C1` [Example 302, 5-[5-[1-[(2,6- DIFLUOROPHENYL)METHYL]- 3(R)-PIPERIDINYL]-1H- 1,2,4-TRIAZOL-3-YL]-3-(2,3- DIFLUORO-4-PYRIDINYL)- 1H-INDAZOLE] showed an IC50 of at least 504 nM.
In turn, `CCn1cc(-c2n[nH]c3ccc(-c4nnc([C@@H]5CCCN(Cc6cc(F)c(Cl)cc6Cl)C5)o4)cc23)cn1` [Example 345, 5-[5-[1-[(2,4-DICHLORO-5- FLUOROPHENYL)METHYL]- 3(R)-PIPERIDINYL]-1,3,4- OXADIAZOL-2-YL]-3-(1- ETHYL-1H-PYRAZOL-4-YL)- 1H-INDAZOLE] yielded an IC50 of over 1000 nM.
For the compound `CCn1cc(-c2n[nH]c3ccc(-c4nnc([C@@H]5CCCN(Cc6cn(C)c7ccccc67)C5)o4)cc23)cn1` [Example 341, 3-(1-ETHYL-1H-PYRAZOL-4- YL)-5-[5-[1-[(1-METHYL-1H- INDOL-3-YL)METHYL]-3(R)- PIPERIDINYL]-1,3,4- OXADIAZOL-2-YL]-1H- INDAZOLE], the IC50 is over 1000 nM.
For the compound `Fc1cc(CN2CCC[C@@H](c3nnc(-c4ccc5[nH]nc(-c6ccnc(Cl)c6)c5c4)o3)C2)c(Cl)cc1Cl` [Example 358, 3-(2-CHLORO-4-PYRIDINYL)- 5-[5-[1-[(2,4-DICHLORO-5- FLUOROPHENYL)METHYL]- 3(R)-PIPERIDINYL]-1,3,4- OXADIAZOL-2-YL]-1H- INDAZOLE], the IC50 is at least 504 nM.
Next, `COc1cccc(F)c1CN1CCCCC1c1nc(-c2ccc3[nH]nc(-c4ccc5c(c4)CCO5)c3c2)n[nH]1` (stereo not drawn) [Example 258, 3-(2,3-DIHYDRO-5- BENZOFURANYL)-5-[5-[1-[(2- FLUORO-6- METHOXYPHENYL)METHYL]- 2-PIPERIDINYL]-1H-1,2,4- TRIAZOL-3-YL]-1H- INDAZOLE]: over 1000 nM; `Cc1noc(C)c1-c1n[nH]c2ccc(-c3n[nH]c([C@@H]4CCCN(Cc5c(F)cccc5F)C4)n3)cc12` [Example 303, 5-[5-[1-[(2,6- DIFLUOROPHENYL)METHYL]- 3(R)-PIPERIDINYL]-1H- 1,2,4-TRIAZOL-3-YL]-3-(3,5- DIMETHYL-4-ISOXAZOLYL)- 1H-INDAZOLE]: at least 504 nM; `Fc1ccccc1CN1CCC[C@@H](c2nnc(-c3ccc4[nH]nc(-c5ccc6occc6c5)c4c3)o2)C1` [Example 347, 3-(5-BENZOFURANYL)-5-[5- [1-[(2- FLUOROPHENYL)METHYL]- 3(R)-PIPERIDINYL]-1,3,4- OXADIAZOL-2-YL]-1H- INDAZOLE]: at least 504 nM.
For the compound `Fc1cccc(F)c1CN1CCC[C@@H](c2cn(-c3ccc4[nH]nc(-c5ccnc6[nH]ccc56)c4c3)nn2)C1` [Example 248, 5-[4-[1-[(2,6- DIFLUOROPHENYL)METHYL]- 3(R)-PIPERIDINYL]-1H- 1,2,3-TRIAZOL-1-YL]-3-(1H PYRROLO[2,3-b]PYRIDIN-4- YL)-1H-INDAZOLE], the IC50 is at least 504 nM.
In the case of `COc1cccc(F)c1CN1CC=CC[C@@H]1c1nc(-c2ccc3[nH]nc(-c4ccc5c(c4)CCO5)c3c2)n[nH]1` [Example 253, 3-(2,3-DIHYDRO-5- BENZOFURANYL)-5-[5-[1-[(2- FLUORO-6- METHOXYPHENYL)METHYL]- 1,2,3,6-TETRAHYDRO- 2(R)-PYRIDINYL]-1H-1,2,4- TRIAZOL-3-YL]-1H- INDAZOLE], the IC50 was at least 504 nM.
`Cn1cc(CN2CCC[C@@H](c3nnc(-c4ccc5[nH]nc(-c6ccc7nccn7c6)c5c4)o3)C2)c2ccccc21` [Example 328, 3-IMIDAZO[1,2-a]PYRIDIN-6- YL-5-[5-[1-[(1-METHYL-1H- INDOL-3-YL)METHYL]-3(R)- PIPERIDINYL]-1,3,4- OXADIAZOL-2-YL]-1H- INDAZOLE] returned an IC50 of over 1000 nM.
`COc1cccc(F)c1CN1CCCCC1c1nc(-c2ccc3[nH]nc(-c4ccc(OC(C)C)cc4)c3c2)n[nH]1` (stereo not drawn) [Example 259, 5-[5-[1-[(2-FLUORO-6- METHOXYPHENYL)METHYL]- 2-PIPERIDINYL]-1H-1,2,4- TRIAZOL-3-YL]-3-[4-(1- METHYLETHOXY)PHENYL]- 1H-INDAZOLE] displayed an IC50 of over 1000 nM.
On to `CC(=O)Nc1cc(-c2n[nH]c3ccc(-c4nnc([C@@H]5CCCN(Cc6ccc7nccnc7c6)C5)o4)cc23)ccc1O` [Example 316, N-[2-HYDROXY-5-[5-[5-[1-(6- QUINOXALINYLMETHYL)- 3(R)-PIPERIDINYL]-1,3,4- OXADIAZOL-2-YL]-1H- INDAZOL-3- YL]PHENYL]ACETAMIDE], for which the IC50 is at least 504 nM.
The compound `CC(C)Oc1ccc(-c2n[nH]c3ccc(-c4n[nH]c([C@@H]5CCCN(Cc6c(F)cccc6F)C5)n4)cc23)cc1` [Example 299, 5-[5-[1-[(2,6- DIFLUOROPHENYL)METHYL]- 3(R)-PIPERIDINYL]-1H- 1,2,4-TRIAZOL-3-YL]-3-[4-(1- METHYLETHOXY)PHENYL]- 1H-INDAZOLE] came in with an IC50 of at least 504 nM.

The values above are taken from patent US8999966B2, “Compounds that are ERK inhibitors” (Merck Sharp & Dohme Corp., priority 2010, dated 2015).
